According to US8193364B2, “Insecticidal N-substituted (6-haloalkylpyridin-3-yl)-alkyl sulfoximines” (Dow AgroSciences, LLC., priority 2006, dated 2012):

Legend:
Type in all cases: in vivo
[1] = tested on: Eastern Subterranean Termite (Reticulitermes flavipes); test: Eastern subterranean termite filter paper assay
Experimental: Activity of Compound 2 was evaluated for its activity on Eastern subterranean termite. Technical material of the test compound was formulated in acetone on a wt/wt basis to deliver 1000, 500, 200, 50, 12.5, 3.12 and 0.78 ppm to 42.5 mm Whatman No. 1 filter papers per 200 ul of pipetted solution. Each test concentration was applied to six filter papers (6 reps). Six acetone-only control units and six DI water-only control units were also prepared. The filter papers were dried overnight in the fume hood before they were placed into 60×15 mm Fisher Brand plastic Petri dishes. A volume of 200 ul DI water was pipetted onto each filter paper at the time of test set-up, just prior to infesting with termites. Ten worker termites were added to each Petri dish and covered. The infested Petri dishes were put in the laboratory Conviron at 28° C. and 60% RH. Termite mortality was recorded at 1, 2, 4, 7, and 10 days after infestation (DAI). Throughout the duration of the test, an average of 150 ul of DI water was added daily to the filter papers to retain moisture.

[2] = tested on: Brown Dog Tick (Rhipicephalus sanguineus); test: Brown dog tick glass plate assay; settings: 48-hour observation
Experimental: Compound 2 was evaluated in a dose response series to establish the range of activity of the test compound. Technical material was dissolved in acetone and diluted with the same solvent to obtain the test concentrations. Tick bioassays were conducted by applying 1.0 ml of the test substance to clean dry glass plates confined by 10 cm grease pencil circles drawn on the plates and spread evenly with an acid brush. The plates were allowed to dry for at least 1 hour before adult ticks were confined to the treated substrate using 10 cm Petri dish lids. Each treatment was replicated 5 times. Approximately 5 adult ticks were placed into each replicate. Mortality was assessed at 2, 8, 24 and 48 hours after introduction of the ticks into the test system. The mean percent mortality for each dosage group and time interval was determined and results from the 48-hour observation are presented in Table 10.

[3] = tested on: Sweet Potato Whitefly (Bemisia tabaci); test: Sweet potato whitefly foliar spray assay on cotton; settings: 12 days, live large nymphs
Source text: This test was designed to measure the capability of whitefly eggs and/or young nymphs to develop to large nymphs. Cotton seedlings at the growth stage of one or two expanding true leaf were trimmed so that only the first true leaf remained (cotyledon leaves were also removed). The plants were pre-infested with sweet potato whitefly eggs by keeping plants next to the colony-keeping plants for two days. The infested plants were carefully checked for presence of similar egg density before use in the insecticidal tests. Master solutions of test compounds at 1000 ppm were prepared in acetone:methanol (1:1). The 12.5 ppm spray solutions were then made by diluting 0.188 mL of the master solution with 14.812 ml of 0.025% Tween 20 in water. The lower concentrations were made by diluting the 12.5 ppm spray solution with a diluent consisting 98.75 parts of 0.025% Tween 20 in water and 1.25 parts of acetone:methanol (1:1). The diluent was used as solvent control. The test solutions were sprayed with a hand-held Devilbiss sprayer until runoff to both sides of the infested cotton leaves. Four plants (4 replications) were used for each treatment. Treated plants were held in a holding room for 12 days at approximately 23° C. and 40% RH before evaluation. To evaluate the efficacy of the compounds, the number of live large nymphs in an area of 1 square inch on the lower surface of the treated cotton leaves was counted under a microscope. Insecticidal activity was determined by Corrected % Control using Abbott's correction formula and presented in Table 5: Corrected % Control=100*(X−Y)/X • where X=No. of live large nymphs on solvent check plants • Y=No. of live large nymphs on treated plants

[4] = tested on: Green Leafhopper (Nephotettix sp.); test: Green leafhopper root-uptake systemic assay on rice
Experimental: A foliar spray assay and a root-uptake systemic assay were performed on both brown planthopper and green leafhopper. Four-week-old rice seedlings were submerged in 3-cm depth of water in the bottom portion (high 5 cm, diameter 3 cm) of a 2-part glass cylinder (high 18 cm, diameter 3 cm). A metal screen was used to hold the seedlings within the bottom portion. Scotch tape was used to bind the two portions of the cylinder after setting up the seedlings. A metal cap was used to cover the cylinder. There were 4 cylinders for each treatment. The test compound was dissolved in acetone to make a 10,000 ppm stock solution. For the foliar spray assay, this stock solution was diluted with water to make 10, 2.5, 0.31, 0.08 and 0.02 ppm test solutions. A volume of 0.5 ml of a test solution or solvent blank as check was sprayed into the glass cylinder. For systemic test, the stock solution was incorporated at final test concentrations of 10, 2.5, 0.31, 0.08 and 0.02 ppm in the water in which rice seedlings were submerged. In both foliar spray and systemic tests, five laboratory-reared 3rd instar nymphs of brown planthopper or green leafhopper were introduced into each cylinder 3 hr after insecticide application. The treated test units were kept in a growth chamber with conditions set as followings: Temperature 28±0.5° C.; Relative humidity 70±0.5%; Photoperiod […].

## CC(c1ccc(C(F)(F)F)nc1)S(C)(=O)=NC#N (stereo not drawn) [Compound 2, [1-(6-trifluoromethylpyridin-3-yl)ethyl](methyl)-oxido-λ^4-sulfanylidenecyanamide]
[1]; 1 DAI
  mortality at 0.78 ppm: 7%
  mortality at 3.13 ppm: 25%
  mortality at 12.5 ppm: 48%
  mortality at 50 ppm: 55%
  mortality at 200 ppm: 55%
  mortality at 500 ppm: 63%
  mortality at 1000 ppm: 87%
[1]; 2 DAI
  mortality at 0.78 ppm: 17%
  mortality at 3.13 ppm: 48%
  mortality at 12.5 ppm: 67%
  mortality at 50 ppm: 72%
  mortality at 200 ppm: 72%
  mortality at 500 ppm: 82%
  mortality at 1000 ppm: 90%
[1]; 4 DAI
  mortality at 0.78 ppm: 58%
  mortality at 3.13 ppm: 67%
  mortality at 12.5 ppm: 90%
  mortality at 50 ppm: 98%
  mortality at 200 ppm: 80%
  mortality at 500 ppm: 98%
  mortality at 1000 ppm: 100%
[1]; 7 DAI
  mortality at 0.78 ppm: 73%
  mortality at 3.13 ppm: 83%
  mortality at 12.5 ppm: 100%
  mortality at 50 ppm: 100%
  mortality at 200 ppm: 100%
  mortality at 500 ppm: 100%
  mortality at 1000 ppm: 100%
[1]; 10 DAI
  mortality at 0.78 ppm: 80%
  mortality at 3.13 ppm: 87%
  mortality at 12.5 ppm: 100%
  mortality at 50 ppm: 100%
  mortality at 200 ppm: 100%
  mortality at 500 ppm: 100%
  mortality at 1000 ppm: 100%
[2]; 50 ppm
  mortality at 50 ppm: 28%
[2]; 500 ppm
  mortality at 500 ppm: 61%
[3]; 0.781 ppm
  % Control at ppm, foliar spray, sweet potato whitefly on cotton: 80%
[3]; 3.125 ppm
  % Control at ppm, foliar spray, sweet potato whitefly on cotton: 94%
[3]; 12.500 ppm
  % Control at ppm, foliar spray, sweet potato whitefly on cotton: 100%
[4]; 0.02 ppm in water
  % Control at ppm against green leafhopper: D (60-69)
[4]; 0.08 ppm in water
  % Control at ppm against green leafhopper: B (80-89)
[4]; 0.31 ppm in water
  % Control at ppm against green leafhopper: A (90-100)
[4]; 2.5 ppm in water
  % Control at ppm against green leafhopper: A (90-100)
[4]; 10 ppm in water
  % Control at ppm against green leafhopper: A (90-100)
